Test results as given in PubChem BioAssay (NCI).
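The compound was tested at five concentrations on cells cultured in 96-well plates, with a 48-hour exposure period. Definition used: TGI = concentration required for complete inhibition of growth.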

Key:
Assay in all cases: DTP human tumour cell line panel, 48 h
[1] = test system: 786-0 renal
[2] = test system: A498 renal
[3] = test system: A549 NSCLC
[4] = test system: ACHN renal
[5] = test system: BT-549 breast
[6] = test system: CAKI-1 renal
[7] = test system: CCRF-CEM leukemia
[8] = test system: COLO 205 colon
[9] = test system: DU-145 prostate
[10] = test system: EKVX NSCLC
[11] = test system: HCC-2998 colon
[12] = test system: HCT-116 colon
[13] = test system: HCT-15 colon
[14] = test system: HL-60(TB) leukemia
[15] = test system: HOP-62 NSCLC
[16] = test system: HOP-92 NSCLC
[17] = test system: HS 578T breast
[18] = test system: HT29 colon
[19] = test system: IGROV1 ovarian
[20] = test system: K-562 leukemia
[21] = test system: KM12 colon
[22] = test system: LOX IMVI melanoma
[23] = test system: M14 melanoma
[24] = test system: MALME-3M melanoma
[25] = test system: MCF7 breast
[26] = test system: MDA-MB-231 breast
[27] = test system: MDA-MB-435
[28] = test system: MDA-N
[29] = test system: MOLT-4 leukemia
[30] = test system: NCI-H226 lung
[31] = test system: NCI-H23 lung
[32] = test system: NCI-H460 lung
[33] = test system: NCI-H522 lung
[34] = test system: NCI/ADR-RES ovarian
[35] = test system: OVCAR-3 ovarian
[36] = test system: OVCAR-4 ovarian
[37] = test system: OVCAR-5 ovarian
[38] = test system: OVCAR-8 ovarian
[39] = test system: PC-3 prostate
[40] = test system: RPMI-8226 leukemia
[41] = test system: RXF 393 renal
[42] = test system: SF-268 CNS
[43] = test system: SF-295 CNS
[44] = test system: SF-539 CNS
[45] = test system: SK-MEL-2 melanoma
[46] = test system: SK-MEL-28 melanoma
[47] = test system: SK-MEL-5 melanoma
[48] = test system: SK-OV-3 ovarian
[49] = test system: SN12C renal
[50] = test system: SNB-19 CNS
[51] = test system: SNB-75 CNS
[52] = test system: SR leukemia
[53] = test system: SW-620 colon
[54] = test system: T-47D breast
[55] = test system: TK-10 renal
[56] = test system: U251 CNS
[57] = test system: UACC-257 melanoma
[58] = test system: UACC-62 melanoma
[59] = test system: UO-31 renal

COc1ccc(NC(=S)N=Nc2c(O)[nH]c3ccccc23)cc1
TGI [1]: > 55.9 µM
TGI [2]: > 83.3 µM
TGI [3]: > 100 µM
TGI [4]: > 95.4 µM
TGI [5]: 33.2 µM
TGI [6]: 98.3 µM
TGI [7]: > 100 µM
TGI [8]: > 100 µM
TGI [9]: > 100 µM
TGI [10]: > 100 µM
TGI [11]: > 100 µM
TGI [12]: > 100 µM
TGI [13]: > 100 µM
TGI [14]: > 100 µM
TGI [15]: > 45.5 µM
TGI [16]: > 78.7 µM
TGI [17]: > 100 µM
TGI [18]: > 100 µM
TGI [19]: > 100 µM
TGI [20]: > 100 µM
TGI [21]: > 100 µM
TGI [22]: > 100 µM
TGI [23]: > 100 µM
TGI [24]: > 42.8 µM
TGI [25]: > 100 µM
TGI [26]: > 90.8 µM
TGI [27]: > 100 µM
TGI [28]: > 100 µM
TGI [29]: > 100 µM
TGI [30]: > 100 µM
TGI [31]: > 100 µM
TGI [32]: > 100 µM
TGI [33]: > 100 µM
TGI [34]: > 42.6 µM
TGI [35]: > 58.6 µM
TGI [36]: > 95.2 µM
TGI [37]: > 100 µM
TGI [38]: > 76.2 µM
TGI [39]: > 70 µM
TGI [40]: > 100 µM
TGI [41]: > 61 µM
TGI [42]: > 100 µM
TGI [43]: > 58.5 µM
TGI [44]: > 70.4 µM
TGI [45]: > 76.4 µM
TGI [46]: > 100 µM
TGI [47]: > 100 µM
TGI [48]: > 68.8 µM
TGI [49]: > 89 µM
TGI [50]: > 100 µM
TGI [51]: > 78.8 µM
TGI [52]: > 100 µM
TGI [53]: > 100 µM
TGI [54]: > 100 µM
TGI [55]: > 79 µM
TGI [56]: > 59.9 µM
TGI [57]: > 100 µM
TGI [58]: > 100 µM
TGI [59]: > 100 µM

COc1ccc2nc3c([N+](=O)[O-])ccc4c3c(c2c1)N(CCCN(C)C)C(=S)N4CCCN(C)C
TGI [1]: 15.7 µM
TGI [2]: 33.5 µM
TGI [3]: 22.2 µM
TGI [4]: 17.9 µM
TGI [5]: 30.8 µM
TGI [6]: 29.1 µM
TGI [7]: > 100 µM
TGI [8]: 6.01 µM
TGI [9]: 20.2 µM
TGI [10]: 31 µM
TGI [11]: 10.1 µM
TGI [12]: 15.9 µM
TGI [13]: 28.7 µM
TGI [14]: > 100 µM
TGI [15]: 22.7 µM
TGI [16]: 21.3 µM
TGI [17]: 31.1 µM
TGI [18]: 11.2 µM
TGI [19]: 24.3 µM
TGI [20]: > 40 µM
TGI [21]: 10.2 µM
TGI [22]: 14.4 µM
TGI [23]: 20.4 µM
TGI [24]: 12.4 µM
TGI [25]: 19.2 µM
TGI [26]: 22.6 µM
TGI [27]: 19.1 µM
TGI [28]: 21.3 µM
TGI [29]: > 100 µM
TGI [30]: 22.4 µM
TGI [31]: 30 µM
TGI [32]: 9.75 µM
TGI [33]: 7.58 µM
TGI [34]: 24.4 µM
TGI [35]: 21.2 µM
TGI [36]: 70.7 µM
TGI [37]: 34.6 µM
TGI [38]: 21.5 µM
TGI [39]: 18 µM
TGI [40]: 22.8 µM
TGI [41]: 22.9 µM
TGI [42]: 35.3 µM
TGI [43]: 19.5 µM
TGI [44]: 22 µM
TGI [45]: 34.2 µM
TGI [46]: 37.4 µM
TGI [47]: 12.3 µM
TGI [48]: 34.4 µM
TGI [49]: 19.2 µM
TGI [50]: 25.8 µM
TGI [51]: 29.3 µM
TGI [52]: > 100 µM
TGI [53]: 16.4 µM
TGI [54]: 43 µM
TGI [55]: 23.8 µM
TGI [56]: 20.2 µM
TGI [57]: 15.5 µM
TGI [58]: 34.4 µM
TGI [59]: 25.9 µM

COc1cc(C2c3cc4c(cc3CC3COC(=O)N32)OCO4)cc(OC)c1OC (configuration not stated)
TGI [1]: > 100 µM
TGI [2]: > 100 µM
TGI [3]: > 100 µM
TGI [4]: > 100 µM
TGI [5]: > 100 µM
TGI [6]: > 100 µM
TGI [7]: > 36.4 µM
TGI [8]: 4.89 µM
TGI [9]: > 100 µM
TGI [10]: > 100 µM
TGI [11]: 8.7 µM
TGI [12]: > 100 µM
TGI [13]: > 27.9 µM
TGI [14]: 8.6 µM
TGI [15]: > 100 µM
TGI [16]: > 94.9 µM
TGI [17]: > 57.2 µM
TGI [18]: 5.14 µM
TGI [19]: > 100 µM
TGI [20]: > 100 µM
TGI [21]: > 61.7 µM
TGI [22]: > 100 µM
TGI [23]: > 100 µM
TGI [24]: > 100 µM
TGI [25]: > 100 µM
TGI [26]: 30 µM
TGI [27]: 1.44 µM
TGI [28]: 1.28 µM
TGI [29]: > 61.8 µM
TGI [30]: > 92.5 µM
TGI [31]: > 31.6 µM
TGI [32]: > 100 µM
TGI [33]: 5.66 µM
TGI [34]: 4.26 µM
TGI [35]: 5.05 µM
TGI [36]: > 100 µM
TGI [37]: > 100 µM
TGI [38]: > 100 µM
TGI [39]: > 100 µM
TGI [40]: > 100 µM
TGI [41]: > 100 µM
TGI [42]: > 100 µM
TGI [43]: 5.35 µM
TGI [44]: 5.8 µM
TGI [45]: > 100 µM
TGI [46]: > 100 µM
TGI [47]: 35.6 µM
TGI [48]: > 100 µM
TGI [49]: > 48.1 µM
TGI [50]: > 100 µM
TGI [51]: > 100 µM
TGI [52]: > 28.7 µM
TGI [53]: > 100 µM
TGI [54]: > 100 µM
TGI [55]: > 100 µM
TGI [56]: > 31.6 µM
TGI [57]: > 100 µM
TGI [58]: > 100 µM
TGI [59]: > 100 µM
